# In patent publication US20060198832A1, “Peptide drugs for chronic lymphocytic leukemia (CLL) and other cancers” (priority 2004, published 2006):
# Bridges are numbered along the chain shown (N, C = ends). Roman numbers before positions name the chains, in order. Where no end group is shown, it is not given here.
# Tests used:
# 697-neo cells = experiment: cell viability assay in 697-neo cells; format: cell-based; settings: low Bcl-2, FIG. 6
# Protocol: (§1) The peptides were tested in cell viability assays essentially as described above in Examples I and II. Experiments were carried out in 697-neo and 697-Bcl-2 cells. 697 cells are from a cell line of preB leukemic cells. 697-Bcl-2 cells have been engineered to express high levels of Bcl-2. AML-349 and AML-728 are myeloblasts (verified by FACS analysis via CD34-positivity) that were isolated from respective patients with acute myelogenous leukemia (AML).
# Bcl-2 family Bcl-2/x1 = Bcl-2 family Bcl-2/x1 (Homo sapiens, UniProt P10415); experiment: binding of penetratin-linked peptides to Bcl-2 (method not described)
# [1] = test system: acute myelogenous leukemia (AML) cells; experiment: cell viability/apoptosis in patient AML cells; format: cell-based, human
# Protocol: as §1
# 697-Bcl-2 cells = experiment: cell viability assay in 697-Bcl-2 cells; format: cell-based; settings: 697-Bcl2 cells with higher levels of Bcl-2, FIG. 6 and 7
# Protocol: as §1
# GST-Bcl2(1-205) = target: T1, GST-Bcl2(1-205) (Homo sapiens, UniProt P10415); experiment: competition ELISA for binding of BAD peptides to Bcl-2; settings: FIG. 1
# T1 construct: 50 ng GST-Bcl2(1-205; Santa Cruz Biotechnology; Santa Cruz, Calif.); purchased Santa Cruz Biotechnology
# Protocol: To determine binding affinity to Bcl-2, competition ELISA assays were performed essentially as described in Cabezas et al., supra, 2001, with the following components. Briefly, acetyl-Cys(biotin-BMCC)-Ahx-Bad peptide (50 ng peptide/50 μl ELISA buffer) was adsorbed to 96-well neutraAvidin coated microtiter plates. Competition peptides were subsequently mixed with 50 ng GST-Bcl2(1-205; Santa Cruz Biotechnology; Santa Cruz, Calif.) in 50 μl ELISA buffer per titer well and incubated for one hour at 37° C. Wells were washed and treated with 50 μl of a 1/4000 dilution of anti-GST Mab 7E5 (from ascites fluid provided by Shinichi Kitada) in ELISA buffer for one hour at 37° C. Quantification of peptide-bound GST-Bcl2/Mab7E5 complex was carried out with alkaline-phosphatase-conjugated goat […] and p-nitrophenylphosphate substrate as described in Cabezas et al., supra, 2001.
# [2] = test system: chronic lymphocytic leukemia (CLL) cells; experiment: viability/apoptosis of CLL cells electroporated with peptides (Annexin V-FITC/PI flow cytometry); format: cell-based, human
# Source text: Peripheral blood mononuclear cells (PBMC) from patients with chronic lymphocytic leukemia (CLL) were obtained from the CLL Research Consortium (CRC) tissue bank. Briefly, heparinized peripheral blood was obtained from patients diagnosed with B-CLL according to standard criteria (Chenson et al., Blood 87:4990-4997 (1996)). Lymphocytes were isolated by Ficoll density-gradient centrifugation and verified by immunofluorescence flow cytometry to be composed of greater than 95% CD5/CD19/CD23 triple positive B cells. […] CLL cells were electroporated with a dimethyl sulfoxide (DMSO) control or peptides essentially as described in […] et al., J. Immunol. Methods 275:41-56 (2003), and […] et al., Cancer Res. 63:1242-1248 (2003). For evaluation of apoptosis, at least 5×10^5 cells were recovered by centrifugation and double-stained with Annexin V-FITC, an early marker of apoptosis, and propidium iodide (PI), a nucleic acid-binding vital dye, followed by flow-cytometric analysis using the FL-1 and FL-3 channels of a Becton Dickinson flow cytometer (FACSort; San Jose, Calif.).
# T1 sequence (P10415 1-205): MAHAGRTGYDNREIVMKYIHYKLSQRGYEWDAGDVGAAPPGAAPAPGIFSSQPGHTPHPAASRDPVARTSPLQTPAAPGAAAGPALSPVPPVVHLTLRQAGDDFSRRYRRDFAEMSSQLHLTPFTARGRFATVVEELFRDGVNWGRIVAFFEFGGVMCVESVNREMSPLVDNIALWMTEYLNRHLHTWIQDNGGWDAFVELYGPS
# Bcl-2 family Bcl-2/x1, sequence (P10415 1-205): as above
Substance,activity in reducing cell viability (697-neo cells),binding to Bcl-2 (Bcl-2 family Bcl-2/x1),"induction of apoptosis / killing ([1]; AML cells of patient AML-349, FIG. 9)","induction of apoptosis ([1]; AML cells of patient AML-728, FIG. 8)",amount of peptide needed to kill cells (697-Bcl-2 cells),binding affinity for Bcl-2 compared to wild type BAD peptide (GST-Bcl2(1-205)),"cell viability (Induction of Apoptosis in CLL Cells), patient sample JCB 178 ([2]; CLL patient sample JCB 178, peptide electroporated) [%]","cell viability (Induction of Apoptosis in CLL Cells), patient sample MA G15 ([2]; CLL patient sample MA G15, peptide electroporated) [%]","cell viability (Induction of Apoptosis in CLL Cells), patient sample TJK 328 ([2]; CLL patient sample TJK 328, peptide electroporated) [%]","cell viability (Induction of Apoptosis in CLL Cells), patient sample TJK 340 #1 ([2]; CLL patient sample TJK 340 #1, peptide electroporated) [%]","cell viability (Induction of Apoptosis in CLL Cells), patient sample TJK 340 #2 ([2]; CLL patient sample TJK 340 #2, peptide electroporated) [%]","cell viability (Induction of Apoptosis in CLL Cells), patient sample TJK 375 ([2]; CLL patient sample TJK 375, peptide electroporated) [%]","cell viability (Induction of Apoptosis in CLL Cells), Av. ([2]; average of the five preceding patient sample columns, peptide electroporated) [%]","cell viability of CLL cells ([2]; electroporated peptide, FIG. 2)","cell viability in all the patient CLL samples ([2]; electroporated peptide, summary of Table 4)"
"acetyl-NLWAAQRYGRELRRMADEFVDAFKKC-CRQIKIWFQNRRMKWKK-amide [2335] (peptide 1 Ac-NLWAAQRYGRELRRMADEFVDAFKKC; peptide 2 CRQIKIWFQNRRMKWKK-NH2; disulfide I:26-II:1) [compound 2335, Bad 2Ser/Ala peptide disulfide linked to penetratin-1]",more active in 697-neo cells with low Bcl-2 than a 2336 control peptide,binds Bcl-2,induced apoptosis,induced apoptosis,it takes more 2335 to kill 697 cells with higher levels of Bcl-2,–,–,–,–,–,–,–,–,–,–
NLWAAQRYGRELRRMADEFVDAFKK [SEQ ID NO: 2],–,–,–,–,–,significantly higher binding affinity for Bcl-2 than the wild type BAD peptide,12,2,10,12,12,22,14,significantly reduced,dramatically reduced
